Experiment: ETH 129 mediated cation transport into Quin-2 loaded POPC vesicles
Assay type: biochemical
Design: slope of log Ca2+ transport rate vs ΔΨ: unit not given here
Conditions: for SlopeETH 129: log rate vs log ETH 129; for SlopeMe: log rate vs log cation concentration, FIG. 8B
Method: Unilamellar vesicles loaded with Quin-2 were prepared from 1-palmitoyl-2-oleoyl-sn-glycerophosphatidylcholine (POPC) by freeze-thaw extrusion (Erdahl et al., 1994 Biophys. J. 66:1678; Erdahl et al., 1995 Biophys. J. 69:2350). The formation medium contained 5 mM Quin-2 (K+), 10 mM Hepes (K+), pH 7.00, and 100 mM KCl. A high internal K+ concentration was sought to allow the generation of membrane potentials of varying magnitude (see below). The preparations obtained were applied to Sephadex™ G-50 mini-columns (Pharmacia, Piscataway N.J.) and eluted by low speed centrifugation (Fry et al., 1978 Anal. Biochem. 90:809), to replace the external medium with a 10 mM Hepes buffer (Na+), pH 7.00 (Erdahl et al., 1994 Biophys. J. 66:1678; Erdahl et al., 1995 Biophys. J. 69:2350). The nominal concentration of POPC in final preparations was determined as lipid phosphorus (Bartlett, 1959 J Biol. Chem. 234:466) and was near 80 mM. The average diameter of these vesicles was 71 nm as determined by freeze-fracture electron microscopy (Chapman et al., 1990 Chem. Phys. Lipids 55:73). They contained entrapped K+ at approximately 125 mM, as determined by atomic absorption spectroscopy, and Quin-2 at approximately 6 mM. The latter value was determined by titrating lysed vesicles with a standard solution of CaCl2 and was about one third of the expected value (Erdahl et al., 1995 Bipohys. J. 69:3250). The high solute level in the formation medium reduced the efficiency of Quin-2 entrapment by reducing the effectiveness of a freeze-thaw driven solute concentrating mechanism that normally elevates the internal concentrations of solutes, relative to the external medium (Chapman et al., 1990 Chem. Phys. Lipids 55:73; Chapman et al., 1990 Chem. Phys. Lipids 60:201).
POPC vesicles containing Quin-2 were utilized at a nominal phospholipid concentration of 1.0 mM, and at 25° C. The external medium contained polyvalent cation salts as described below, 100 mM NaCl, or mixtures of NaCl and KCl totaling […], and 10 mM Hepes, pH 7.00, unless otherwise noted. The medium pH was adjusted with NaOH that had been passed over Chelex 100 columns to remove contaminating cations (Erdahl et al., 1994 Biophys. J. 66:1678). In most cases an inside negative membrane electrical potential was present during the experiments. This was generated by the presence of 0.5 μM valinomycin (Val), which transports K+ out of the vesicles electrogenically (Erdahl et al., 1994 Biophys. J. 66:1678). The magnitude of the potential was controlled by varying the concentration ratio of Na+ to K+ in the external medium. A TPP+electrode was used to measure the potential (Broekemeier et al, 1998 Biochem. 37:13059), and thereby to verify that the calculated values were obtained. For these purposes the incubation medium contained 2.0 μM TPP.Cl and the entrapped volume was taken to be 2.02 μl/ml at a nominal POPC concentration of 1.0 mM (Chapman et al., 1990 Chem. Phys. Lipids 55:73).
Val was omitted when an imposed membrane potential was not desired, or in some cases 5 μM of the protonophore carbonyl cyanide m-chlorophenylhydrazone (CCP) was present instead of Val.
The transport of polyvalent cations was monitored by difference absorbance measurements which detected formation of the Quin-2:cation complex within the vesicle lumen. An Aminco DW2a spectrophotometer operated in the dual wavelength mode was employed. In addition, an Oriel No. 59800 band pass filter was used between the cuvette and the beam scrambler-photomultiplier assembly to prevent detection of the fluorescent light emitted by Quin-2. The sample wavelength for all cations was 264 nm. The reference wavelengths were at an isosbestic point in the Quin-2/Quin-2:cation complex difference spectrum of interest. These wavelengths varied slightly from cation to cation, as previously described (Erdahl et al., 1996 Biochem. 35:13817). […]

[1] = 5.0 μM ETH 129, 30 μM CaCl2, Val, FIG. 3B

For `O=C(COCC(=O)N(C1CCCCC1)C1CCCCC1)N(C1CCCCC1)C1CCCCC1` [ETH 129], the “slope of log rate vs. log Ca2+ concentration” value (5.0 μM ETH 129, 0.5 μM Val, FIG. 7B) was 0.7, the “Ca2+ transport rate at zero potential (extrapolated)” value [1] was 0.41 nM/s and the “slope of log Ca2+ transport rate vs ΔΨ” value [1] was 0.12. The “Ca2+ transport rate when CCP was used to eliminate an opposing potential” value (5.0 μM ETH 129, 100 μM CaCl2, 5.0 μM CCP, FIG. 2C) was 0.88 nM/s, the “Selectivity, Ca/Me” value (10^−2.0 M Cations, Me = Ca^2+) was “≡1.0” and the “Selectivity, Ca/Me” value (10^−2.0 M Cations, Me = Co^2+) was 53. For the same compound, the “Selectivity, Ca/Me” value (10^−2.0 M Cations, Me = La^3+) was 5.1, the “Selectivity, Ca/Me” value (10^−2.0 M Cations, Me = Mn^2+) was 59 and the “Selectivity, Ca/Me” value (10^−2.0 M Cations, Me = Ni^2+) was 55. For the same compound, the “Selectivity, Ca/Me” value (10^−2.0 M Cations, Me = Sr^2+) was 2.8, the “Selectivity, Ca/Me” value (10^−2.0 M Cations, Me = Zn^2+) was 2.3 and the “Selectivity, Ca/Me” value (10^−3 5 M Cations, Me = Ca^2+) was “≡1.0”. The “Selectivity, Ca/Me” value (10^−3 5 M Cations, Me = Co^2+) was 9.9, the “Selectivity, Ca/Me” value (10^−3 5 M Cations, Me = La^3+) was 0.44 and the “Selectivity, Ca/Me” value (10^−3 5 M Cations, Me = Mn^2+) was 8.9. For the same compound, the “Selectivity, Ca/Me” value (10^−3 5 M Cations, Me = Ni^2+) was 8.6, the “Selectivity, Ca/Me” value (10^−3 5 M Cations, Me = Sr^2+) was 2.9 and the “Selectivity, Ca/Me” value (10^−3 5 M Cations, Me = Zn^2+) was 2.6. The “Selectivity, Ca/Me” value (10^−5.0 M Cations, Me = Ca^2+) was “≡1.0”, the “Selectivity, Ca/Me” value (10^−5.0 M Cations, Me = Co^2+) was 1.6 and the “Selectivity, Ca/Me” value (10^−5.0 M Cations, Me = La^3+) was 0.14. For the same compound, the “Selectivity, Ca/Me” value (10^−5.0 M Cations, Me = Mn^2+) was 1.1, the “Selectivity, Ca/Me” value (10^−5.0 M Cations, Me = Ni^2+) was 1.1 and the “Selectivity, Ca/Me” value (10^−5.0 M Cations, Me = Sr^2+) was 1.0. The “Selectivity, Ca/Me” value (10^−5.0 M Cations, Me = Zn^2+) was 0.9, the “slope of log rate vs. log ionophore concentration” value (Ca2+ 30 μM, Val, FIG. 6B) was 2.8 and the “selectivity sequence among the divalent cations” value (FIG. 8) was “Ca^2+>Zn^2+≈Sr^2+>Co2+≈Ni^2+≈Mn^2+”. For the same compound, the “acceleration of Ca2+ transport per 59 mV increase in ΔΨ” value (equivalent of the slope value, FIG. 3B) was 3.3 fold, the “SlopeETH 129” value (cation Ca^2+ 1.0 mM) was 1.5 and the “SlopeETH 129” value (cation Co^2+ 1.0 mM) was 0.55. The “SlopeETH 129” value (cation Mn^2+ 1.0 mM) was 0.85, the “SlopeETH 129” value (cation Ni^2+ 1.0 mM) was 0.78 and the “SlopeETH 129” value (cation Sr^2+ 1.0 mM) was 2.0. The SlopeMe (cation Ca^2+) was 0.65, the SlopeMe (cation Co^2+) was 0.11 and the SlopeMe (cation La^3+) was “nonlin”. For the same compound, the SlopeMe (cation Mn^2+) was 0.04, the SlopeMe (cation Ni^2+) was 0.05 and the SlopeMe (cation Sr^2+) was 0.57. For the same compound, the SlopeMe (cation Zn^2+) was 0.58 and the “effect of ETH 129 alone on rate of Ca2+ permeation” value (no Val or CCP, FIG. 2A) was “only a modest effect”.

Source: patent US20020090619A1, “Methods for identifying mitochondrial divalent cation transporters” (priority 2000, published 2002)
